According to ChEMBL document CHEMBL3301361, “Experimental in vitro DMPK and physicochemical data on a set of publicly disclosed compounds”:

Assay: physchem
Details: octan-1-ol/water, pH 7.4

Structure (SMILES)	logD
COc1ccc2c3c1OC1C(O)C=CC4C(C2)N(C)CCC341 (centres undefined)	0.8
CCc1c(C(=O)C(N)=O)c2c(OCC(N)=O)cccc2n1Cc1ccccc1	2.1
CCNC1=Nc2ccccc2C(c2ccccc2)=NC1c1cccs1 (centres undefined)	3.98
c1ccc2ncccc2c1 [QUINOLINE]	2.09
Clc1ccc([C@H]2CC=CCNC2)cc1Cl	1.95
O=C(Nc1cccc([C@@H](c2ccc(C(=O)N3CCC3)cc2)N2CCN(Cc3ccc(F)cc3)CC2)c1)C1CC1	3.58
c1ccc(-c2ccc(C3CN4CCC3CC4)cc2)cc1 (centres undefined)	1.76
CN1C(=O)NC(=O)C(C)(C2=CCCCC2)C1=O (centres undefined) [HEXOBARBITAL]	1.5
Clc1ccc([C@]23CNC[C@H]2C3)cc1Cl [AMITIFADINE]	1.96
COc1cc2c(c(OC)c1OC)-c1ccc(OC)c(=O)cc1[C@@H](NC(C)=O)CC2 [COLCHICINE]	0.82
COc1cccc(COCC(O)CN2CCC(C(N)=O)CC2)c1 (centres undefined)	-0.5
Oc1ccc(Br)c2ccccc12	4.3
Cc1ccc(-c2nnc(O)c3ccccc23)c(C)c1	3.41
N#Cc1c(-c2ccccc2)nc(SCCc2ccccc2)[nH]c1=O	1.71
NC(=O)c1cccc(O[C@H]2C[C@H]3CC[C@@H](C2)N3CC2CCCCC2)c1	1.55

Same assay, conditions: octan-1-ol/water, pH 7.4, LogD7.4

Structure (SMILES)	logD
NS(=O)(=O)c1cc2c(cc1Cl)NC(C1CC3C=CC1C3)NS2(=O)=O (centres undefined) [CYCLOTHIAZIDE]	2.12
N#Cc1cccc(COc2ccc3c(c2)OCCC3=O)c1	2.8
Oc1ccc(CCc2ccc(O)cc2)cc1	3.3
Clc1ccc(-c2cn3ccccc3n2)cc1	4
C=CCCCCCCCCC(=O)N[C@H]1CCC(=O)NC1=O	2.64
COc1cc(N2CCN(C(C)=O)CC2)ccc1Nc1nccc(-c2cnc3ccccn23)n1	3
COc1cccc(Nc2nc(NCC3CCCO3)c3ccccc3n2)c1 (centres undefined)	3.9
NC1CCc2cc(OC(=O)c3ccccc3)c(OC(=O)c3ccccc3)cc2C1 (centres undefined)	2.6
O=c1cc(-c2ccccc2)oc2ccc(O)cc12 [6-HYDROXYFLAVONE]	3.6
CNC(=O)c1cnn(-c2ccccc2)c1NS(=O)(=O)c1ccc(C)cc1	-0.54
COc1ccc(Cl)cc1NC(=O)CCS(=O)(=O)c1ccc(Br)cc1	3.4
O=C1O[C@@H](Cn2nncc2F)CN1c1ccc(C2=CCS(=O)(=O)CC2)c(F)c1	3.54
COc1cc(N2CCN(C)CC2)c2nc(C(=O)Nc3ccc(N4CCOCC4)cc3)cc(N(C)C)c2c1	3.3
Fc1cccc(-c2cncc(CNCC3CC3)n2)c1F	1.82
NC1(C(=O)NC(CS(N)(=O)=O)c2ccc(Cl)cc2)CCN(c2ncnc3[nH]ccc23)CC1 (centres undefined)	2.2
Nc1nc(-c2ccccc2)nn1Cc1ccccc1	1.91
Cc1cc(CN2Cc3cccnc3CC2C(=O)Nc2ccc(Cl)cc2Cl)ccc1OCC(=O)O (centres undefined)	1.15
O=S(=O)(NCC(c1ccccc1)N1CCCCCC1)c1cccnc1 (centres undefined)	2.1
Cc1nc(NC(=N)N)nc2ccccc12	-0.49
Cc1c(Sc2ccc(Cl)cc2)c2c(Cl)nccc2n1CC(=O)O	0.92
CC#Cc1ccnc(-c2cc(C3(C4CC4)N=C(C)C(N)=N3)ccc2O)c1 (centres undefined)	3.6
CCN1CCN(CC(=O)Nc2ccc(-c3cccc4c(=O)cc(N5CCOCC5)oc34)c3sc4ccccc4c23)CC1	3.05
Nc1cc2n[nH]c(=O)n2c2cc(-c3ccco3)ccc12	2.48
COc1cc(C(=O)c2cc(Cl)ccc2N)cc(OC)c1OC	3.38

Structure (SMILES)	logD
O=C1CCC(=O)N1C(CCc1ccncc1)COc1ccc(-c2cccc([N+](=O)[O-])c2)cc1 (centres undefined)	3.88
CCOc1ccc(Oc2ccc(S(=O)(=O)NC(=O)c3cccc(-c4ccc(Cl)c(Cl)c4)c3)cc2)cc1	2.94
OCCn1cc(-c2cnc3nnn(Cc4ccc5ncccc5c4)c3n2)cn1 [PF-04217903]	1.7
OCC[C@]1(c2ccc(Cl)c(Cl)c2)CCCNC1	0.61
CN1CCCC(n2nc(Cc3ccc(Cl)cc3)c3ccccc3c2=O)CC1 (centres undefined) [AZELASTINE]	2.46
Cc1ncc(-c2nc(Nc3ccc(C(=O)N4CCCN(C)CC4)cc3)ncc2F)n1C(C)C	2.02
O=C(c1cccc(Cc2n[nH]c(=O)c3ccccc23)c1)N1CCN(c2ccccn2)CC1	2.36
CC(=O)NC[C@H]1CN(c2ccc(N3CCN(c4cnccn4)CC3)c(F)c2)C(=O)O1	1.49
Cc1ccc(-c2cc(C(F)(F)F)n[nH]2)cc1NC(=O)c1ccc(OCc2ccccn2)cc1	2.44
OCCN1CC=CC[C@H](c2ccc(Cl)c(Cl)c2)C1	2.37
COc1cc(F)ccc1-c1cncc(CNC2CCCC2)c1	2.29
CC(c1ccccc1)C(Cc1nc2ccccc2[nH]1)c1nc2ccccc2[nH]1 (centres undefined)	4.48
N#Cc1cccc(S(=O)(=O)NC(=O)N2CCC(N3CCC(Oc4ccc(Cl)c(Cl)c4)CC3)CC2)c1	1.81
N[C@@H](Cc1c[nH]c2ccccc12)C(=O)O [TRYPTOPHAN]	-1.08
Cc1ccc2c(-c3ccnc4cc(Cl)ccc34)c(C)n(CC(=O)O)c2c1	2.41
O=C(COCc1ccccc1)Nc1ccc2c(c1)C(=O)C(=O)c1ccccc1-2	3.21
COc1ccccc1-c1nnc(N)[nH]1	0.91
O=C1c2ccc(O)cc2C(=O)N1c1ccc(O)cc1F	2.1
COc1cc(N2CCN(C(C)=O)CC2)ccc1Nc1ncc(Cl)c(-c2cnc3cc(F)ccn23)n1	3.7
CCCCN(CCCC)CCCOC(=O)c1ccc(N)cc1 [BUTACAINE]	1.93
O=c1c(-c2ccc([N+](=O)[O-])cc2)coc2cc(O)cc(O)c12	3.24
O=C1C(=O)c2cc([N+](=O)[O-])ccc2-c2ccccc21	2.42
O=C(N[C@@H]1Cc2ccccc2N(C[C@@H](O)CO)C1=O)c1cc2cc(Cl)sc2[nH]1	3.27
O=[N+]([O-])c1ccc2c(c1)N(c1cccc[n+]1[O-])CC(C(F)F)(C(F)F)O2	3.2

Structure (SMILES)	logD
O=[N+]([O-])c1cccc2ccc(C(Cl)(Cl)Cl)nc12	3.7
O=C([C@@H](O)CO)N1CC=C(c2ccc(N3C[C@H](COc4ccon4)OC3=O)cc2F)CC1	1.09
CNC(=O)c1ccc(CCC(COc2ccc(-c3cccc([N+](=O)[O-])c3)cc2)N2C(=O)CSC2=O)cc1 (centres undefined)	3.5
O=C(Nc1ccc(Cl)c(Cl)c1)N1CCN(C[C@H]2CN(C3CC3)CCO2)CC1	3.32
CCNc1nc(C#N)nc(Nc2ccccc2)n1	3.11
CC(=O)N(C)c1ccc(Nc2ncc3cc(-c4ccncc4)ccc3n2)cc1	2.88
Cc1ccc(COC(=O)N2CC[C@H](CNc3ncccn3)[C@H](F)C2)cc1 [RISLENEMDAZ]	3.21
CN(C(=O)Cc1ccc(O)cc1)C1CCN(CCC(c2ccccc2)c2ccccc2)CC1	3.3
COc1ccc(-c2nc3c(NCCCNC(=O)C4CCCC4)c(C(N)=O)cnc3[nH]2)cc1	3.13
O=C1Nc2ccc(S(=O)(=O)N3CCC[C@H]3COc3ccccc3)cc2C1=O	2.7
O=c1[nH]c2c(O)ccc([C@@H](O)CNCCc3ccc(CNCCc4c(Cl)cccc4Cl)cc3)c2s1	2.3
Nc1cccc(C(=O)NCC23CC4CC(CC(C4)C2)C3)c1Cl	3.29
Cc1nc(C)c(-c2ccc([C@H]3CC[C@H](CC(=O)O)CC3)c(F)c2)nc1C(N)=O	1.3
c1ccc(-c2cn3ccccc3n2)cc1	2.9
CC[C@H](NC(=O)c1c([S+](C)[O-])c(-c2ccc(F)cc2)nc2ccccc12)c1ccccc1 (some centres undefined)	3.72
COc1ccnc(C[S+]([O-])c2nc3ccc(OC(F)F)cc3[nH]2)c1OC (centres undefined) [PANTOPRAZOLE]	2
CC(C)Cn1c(=O)[nH]c(=O)c2c(C(=O)N3CCC3)c(Cc3ccccc3C(F)(F)F)sc21	3
O=c1c(-c2ccc(O)c(O)c2)coc2cc(O)cc(O)c12 [OROBOL]	2.45
CCc1c(C)[nH]c2c1C(=O)C(CN1CCOCC1)CC2 (centres undefined) [MOLINDONE]	1.54
Nc1c(C(=O)NC2CC2)nnc2c(-c3ncccn3)cccc12	1.5
CC(C)C[C@H](CO)Nc1nc(SCc2ccncc2)nc2nc(N)sc12	2.9
O=c1[nH]ccc2nc(-c3ccc(CN4CCC(c5n[nH]c(-c6ccccn6)n5)CC4)cc3)c(-c3ccccc3)cc12	3.9
OCCOCCN1CCN(C(c2ccccc2)c2ccc(Cl)cc2)CC1 (centres undefined) [HYDROXYZINE]	3.08
Nc1nonc1C(=NO)Nc1ccc(F)c(Cl)c1	2.7

Structure (SMILES)	logD
CN1CCOc2nc(C#Cc3ccccc3)ccc21	3.8
COc1cc(F)ccc1-c1cncc(CNC[C@@H]2CCCO2)n1	2
CC(C)C[C@H](CO)Nc1nc(SCc2ccccc2F)nc2nc(N)sc12	4.5
CN[C@@H](C)C(=O)N[C@H](C(=O)N[C@H]1CCCN(CCc2ccccn2)C1)C(C)(C)C	-0.55
Nc1n[nH]c(Nc2ccccc2)n1	1.06
CC(=O)Nc1ccccn1	0.5
N=C(N)Nc1ccc(Cl)c(Cl)c1	-0.31
Nc1nc2cc3c(cc2s1)CCN(Cc1cnc[nH]1)CC3	-0.12
COc1cc(F)ccc1-c1cncc(CNC2CCCCC2)c1	2.6
COc1ccccc1OCC(O)COC(N)=O (centres undefined) [METHOCARBAMOL]	0.36
CC(NC(=O)C1(N)CCN(c2ncnc3[nH]ccc23)CC1)c1ccccn1 (centres undefined)	1.3
COc1cc(N2CCCN(C)CC2)c2[nH]c(C(=O)Nc3ccc(N4CCOCC4)cc3)cc(=O)c2c1	2.1
COC(=O)c1ccc(CC(=O)N(C)C2CCN(CCC(c3ccccc3)c3ccccc3)CC2)cc1	4
NC(=O)Nc1sc(-c2ccc(F)cc2)cc1C(=O)N[C@H]1CCCNC1	1.76
CCCCN(CCNC[C@H](O)c1ccc(O)c2[nH]c(=O)sc12)C(=O)CCOCCc1ccccc1	2.51
NS(=O)(=O)c1ccc2c(c1)C1C=CCC1C(c1cccc3ccccc13)N2 (centres undefined)	1.9
CC(C)C(NC(=O)Cn1c(-c2ccccc2)ccc(NC(=O)Cc2ccccc2C(=O)O)c1=O)C(=O)C(F)(F)F (centres undefined)	1.14
CC1CC(OC(=O)C(O)c2ccccc2)CC(C)(C)C1 (centres undefined) [CYCLANDELATE]	2.31
Cc1cnc2c(N[C@H](C)CO)nc(SCc3cccc(F)c3F)nc2n1	3.55
NC(=O)C1CCN(CC(=O)Nc2ccc3c(c2)OCO3)CC1	0.4
c1ccc(OCC2CNCCO2)cc1 (centres undefined)	0.2
CNS(=O)(=O)CCc1ccc2[nH]cc(C3CCN(C)CC3)c2c1	0.48
